Data as given in patent US6737383B1, “Herbicidal oxadiazolidines” (priority 1999, dated 2004).

Tests used:
rice = experiment: Test B flood test rice; assay type: in vivo, Oryza sativa
How it was run: (§1)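 Plants were grown to the 2-leaf stage before treatment with test chemical, then held in a greenhouse for twelve to sixteen days. Injury was visually rated against untreated controls on a 0–10 scale, where 0 is no effect and 10 is complete control.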

bedstraw = experiment: Test B pre/postemergence bedstraw; assay type: in vivo, Galium aparine
How it was run: (§2)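 Herbicidal effect was estimated by eye on a ten-point control scale after plants spent twelve to sixteen days in a greenhouse following soil or foliar treatment. Foliar sprays targeted plants at one to four leaves; all doses were formulated in a non-phytotoxic solvent with surfactant.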

purple nutsedge = experiment: Test B pre/postemergence purple nutsedge; assay type: in vivo, Cyperus rotundus; conditions: Preemergence
How it was run: as §2

wild oat = experiment: Test B pre/postemergence wild oat; assay type: in vivo, Avena fatua
How it was run: as §2

velvetleaf = experiment: Test B pre/postemergence velvetleaf; assay type: in vivo, Abutilon theophrasti
How it was run: as §2

surinam grass = experiment: Test B pre/postemergence surinam grass; assay type: in vivo, Brachiaria decumbens
How it was run: as §2

giant foxtail = experiment: Test B pre/postemergence giant foxtail; assay type: in vivo, Setaria faberii
How it was run: as §2

corn = experiment: Test B pre/postemergence corn; assay type: in vivo, Zea mays
How it was run: as §2

pigweed = experiment: Test B pre/postemergence pigweed; assay type: in vivo, Amaranthus retroflexus
How it was run: as §2

wheat = experiment: Test B pre/postemergence wheat; assay type: in vivo, Triticum aestivum
How it was run: as §2

morningglory = experiment: Test B pre/postemergence morningglory; assay type: in vivo, Ipomoea hederacea
How it was run: as §2

blackgrass = experiment: Test B pre/postemergence blackgrass; assay type: in vivo, Alopecurus myosuroides
How it was run: as §2

crabgrass = experiment: Test B pre/postemergence crabgrass; assay type: in vivo, Digitaria sanguinalis
How it was run: as §2

duck salad = experiment: Test B flood test duck salad; assay type: in vivo, Heteranthera limosa
How it was run: as §1

rape = experiment: Test B pre/postemergence rape; assay type: in vivo, Brassica napus
How it was run: as §2

soybean = experiment: Test B pre/postemergence soybean; assay type: in vivo, Glycine max
How it was run: as §2

[1] = Postemergence, Rate 1000 g/ha, scale 0 to 10 (0 no effect, 10 complete control)
[2] = Rate 125 g/ha, Postemergence section (flood test species), scale 0 to 10, 0 no effect, 10 complete control
[3] = Rate 250 g/ha, headed Pre-emergence (flood test species), scale 0 to 10 (0 no effect, 10 complete control)
[4] = Rate 500 g/ha, Postemergence section of Table B, 0 to 10 scale (0 no effect, 10 complete control)
[5] = Rate 500 g/ha, headed Pre-emergence (flood test species), scale 0 to 10 (0 no effect, 10 complete control)
[6] = Rate 1000 g/ha, Pre-emergence (as headed), scale 0 to 10
[7] = Rate 2000 g/ha, Pre-emergence (as headed), scale 0 to 10
[8] = flood test, listed under Postemergence, Rate 250 g/ha, scale 0 to 10, 0 no effect, 10 complete control
[9] = Postemergence, Rate 250 g/ha, scale 0 to 10, 0 no effect, 10 complete control
[10] = Preemergence, Rate 125 g/ha, scale 0 to 10 (0 no effect, 10 complete control)
[11] = Preemergence, Rate 250 g/ha, scale of 0 to 10 where 0 is no effect and 10 is complete control
[12] = Preemergence, Rate 500 g/ha, scale 0 (no effect) to 10 (complete control)
[13] = Rate 125 g/ha, Postemergence, scale 0 to 10, 0 no effect, 10 complete control
[14] = Rate 500 g/ha, Postemergence, 0 to 10 scale (0 no effect, 10 complete control)
[15] = Rate 1000 g/ha, Preemergence, scale 0 to 10 (0 no effect, 10 complete control)

CC(C)N(C(=O)n1oc(=O)n(-c2ccc(Cl)cc2Cl)c1=O)c1ccc(F)cc1 [Compound 7, 4-(2,4-Dichlorophenyl)-N-(4-fluorophenyl)-N-(1-methylethyl)-3,5-dioxo-1,2,4-oxadiazolidine-2-carboxamide]
2: Plant response rating, Giant foxtail (giant foxtail; [10]) | Plant response rating, Redroot pigweed (pigweed; [15]) | Wheat plant response rating (wheat; [1]) | Blackgrass plant response rating (blackgrass; [9]) | Plant response rating, Blackgrass (blackgrass; [15])
5: Plant response rating, Giant foxtail (giant foxtail; [11]) | Giant foxtail plant response rating (giant foxtail; [14]) | Crabgrass plant response rating (crabgrass; [1]) | Soybean plant response rating (soybean; [1])
0: Rice plant response rating (rice; [1]) | Rice plant response rating (rice; [2]) | Rice plant response rating (rice; [3]) | Rice plant response rating (rice; [4]) | Plant response rating, Rice (rice; [5]) | Rice plant response rating (rice; [6]) | Rice plant response rating (rice; [7]) | Rice plant response rating (rice; [8]) | Bedstraw plant response rating (bedstraw; [9]) | Plant response rating, Bedstraw (bedstraw; [10]) | Plant response rating, Bedstraw (bedstraw; [11]) | Bedstraw plant response rating (bedstraw; [12]) | Bedstraw plant response rating (bedstraw; [13]) | Bedstraw plant response rating (bedstraw; [14]) | Plant response rating, Bedstraw (bedstraw; [15]) | Plant response rating, Nutsedge (purple nutsedge; Rate 125 g/ha, scale 0 to 10 (0 no effect, 10 complete control)) | Plant response rating, Nutsedge (purple nutsedge; Rate 250 g/ha, scale of 0 to 10 where 0 is no effect and 10 is complete control) | Nutsedge plant response rating (purple nutsedge; Rate 500 g/ha, scale 0 (no effect) to 10 (complete control)) | Plant response rating, Nutsedge (purple nutsedge; Rate 1000 g/ha, scale 0 to 10 (0 no effect, 10 complete control)) | Wild oats plant response rating (wild oat; [9]) | Plant response rating, Wild oats (wild oat; [10]) | Plant response rating, Wild oats (wild oat; [11]) | Wild oats plant response rating (wild oat; [12]) | Wild oats plant response rating (wild oat; [13]) | Plant response rating, Wild oats (wild oat; [15]) | Velvetleaf plant response rating (velvetleaf; [9]) | Velvetleaf plant response rating (velvetleaf; [1]) | Plant response rating, Velvetleaf (velvetleaf; [10]) | Plant response rating, Velvetleaf (velvetleaf; [11]) | Velvetleaf plant response rating (velvetleaf; [12]) | Velvetleaf plant response rating (velvetleaf; [13]) | Plant response rating, Velvetleaf (velvetleaf; [15]) | B. signalgrass plant response rating (surinam grass; [9]) | Plant response rating, B. signalgrass (surinam grass; [10]) | Plant response rating, B. signalgrass (surinam grass; [11]) | B. signalgrass plant response rating (surinam grass; [12]) | B. signalgrass plant response rating (surinam grass; [13]) | Giant foxtail plant response rating (giant foxtail; [13]) | Corn plant response rating (corn; [9]) | Corn plant response rating (corn; [1]) | Plant response rating, Corn (corn; [10]) | Plant response rating, Corn (corn; [11]) | Corn plant response rating (corn; [12]) | Corn plant response rating (corn; [13]) | Corn plant response rating (corn; [14]) | Plant response rating, Corn (corn; [15]) | Redroot pigweed plant response rating (pigweed; [9]) | Redroot pigweed plant response rating (pigweed; [1]) | Plant response rating, Redroot pigweed (pigweed; [10]) | Plant response rating, Redroot pigweed (pigweed; [11]) | Redroot pigweed plant response rating (pigweed; [12]) | Redroot pigweed plant response rating (pigweed; [13]) | Redroot pigweed plant response rating (pigweed; [14]) | Wheat plant response rating (wheat; [9]) | Plant response rating, Wheat (wheat; [10]) | Plant response rating, Wheat (wheat; [11]) | Wheat plant response rating (wheat; [12]) | Wheat plant response rating (wheat; [13]) | Plant response rating, Wheat (wheat; [15]) | Plant response rating, Morningglory (morningglory; [10]) | Plant response rating, Morningglory (morningglory; [11]) | Morningglory plant response rating (morningglory; [12]) | Morningglory plant response rating (morningglory; [13]) | Morningglory plant response rating (morningglory; [14]) | Plant response rating, Morningglory (morningglory; [15]) | Plant response rating, Blackgrass (blackgrass; [10]) | Plant response rating, Blackgrass (blackgrass; [11]) | Blackgrass plant response rating (blackgrass; [12]) | Blackgrass plant response rating (blackgrass; [13]) | Crabgrass plant response rating (crabgrass; [13]) | Ducksalad plant response rating (duck salad; [1]) | Ducksalad plant response rating (duck salad; [2]) | Ducksalad plant response rating (duck salad; [3]) | Ducksalad plant response rating (duck salad; [4]) | Plant response rating, Ducksalad (duck salad; [5]) | Ducksalad plant response rating (duck salad; [6]) | Ducksalad plant response rating (duck salad; [7]) | Ducksalad plant response rating (duck salad; [8]) | Rape plant response rating (rape; [9]) | Rape plant response rating (rape; [1]) | Plant response rating, Rape (rape; [10]) | Plant response rating, Rape (rape; [11]) | Rape plant response rating (rape; [12]) | Rape plant response rating (rape; [13]) | Rape plant response rating (rape; [14]) | Plant response rating, Rape (rape; [15]) | Plant response rating, Soybean (soybean; [10]) | Plant response rating, Soybean (soybean; [11]) | Soybean plant response rating (soybean; [12]) | Soybean plant response rating (soybean; [13]) | Plant response rating, Soybean (soybean; [15])
4: Bedstraw plant response rating (bedstraw; [1])
7: Plant response rating, Crabgrass (crabgrass; [10])
1: Crabgrass plant response rating (crabgrass; [9]) | Soybean plant response rating (soybean; [9])
6: B. signalgrass plant response rating (surinam grass; [1]) | Giant foxtail plant response rating (giant foxtail; [1]) | Blackgrass plant response rating (blackgrass; [1])
3: Wild oats plant response rating (wild oat; [1]) | B. signalgrass plant response rating (surinam grass; [14]) | Plant response rating, B. signalgrass (surinam grass; [15]) | Giant foxtail plant response rating (giant foxtail; [9]) | Morningglory plant response rating (morningglory; [1]) | Blackgrass plant response rating (blackgrass; [14]) | Crabgrass plant response rating (crabgrass; [14])
9: Plant response rating, Giant foxtail (giant foxtail; [15])
8: Giant foxtail plant response rating (giant foxtail; [12]) | Crabgrass plant response rating (crabgrass; [12]) | Plant response rating, Crabgrass (crabgrass; [15])
